Data on 32 molecules can be found in ChEMBL document CHEMBL1145355, “From selective substrate analogue factor Xa inhibitors to dual inhibitors of thrombin and factor Xa. Part 3” (Bioorg Med Chem Lett, 2007).

One data set has as its target Trypsin (Homo sapiens, UniProt P07477+P07478+P35030). Nature of the data set: Inhibition of trypsin. Format: protein assay.
For another data set, the target named is Prothrombin (Homo sapiens, UniProt P00734). Nature of the data set: Inhibition of thrombin.
Data set [1] is described as follows: Inhibition of Plasmin. On the set-up: species or system Homo sapiens.
Data set [2] addresses Urokinase-type plasminogen activator (Homo sapiens, UniProt P00749). Nature of the data set: Inhibition of uPA.
Another data set addresses Coagulation factor X (Homo sapiens, UniProt P00742).
The nature of data set [3]: Anticoagulant activity in human plasma by aPTT assay. Format: functional.
For data set [4], the system named is Plasma. Nature of the data set: Anticoagulant activity in human plasma by PT assay. Format: functional.
Data set [5] deals with Plasma. Nature of the data set: Anticoagulant activity in human plasma by TT assay. Format: functional.
Data set [6] is described as follows: Permeability across Caco-2 cell membrane. Format: ADME, cell-based. The conditions noted are these: human.

Some results are limits rather than exact numbers.

Coagulation factor X, sequence (P00742 41-179 limits assumed): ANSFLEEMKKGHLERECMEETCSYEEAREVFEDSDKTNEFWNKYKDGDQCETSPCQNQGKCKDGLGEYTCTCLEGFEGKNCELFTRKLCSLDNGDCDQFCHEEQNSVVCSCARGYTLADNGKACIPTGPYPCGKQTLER
Coagulation factor X, sequence (P00742 235-488 limits assumed): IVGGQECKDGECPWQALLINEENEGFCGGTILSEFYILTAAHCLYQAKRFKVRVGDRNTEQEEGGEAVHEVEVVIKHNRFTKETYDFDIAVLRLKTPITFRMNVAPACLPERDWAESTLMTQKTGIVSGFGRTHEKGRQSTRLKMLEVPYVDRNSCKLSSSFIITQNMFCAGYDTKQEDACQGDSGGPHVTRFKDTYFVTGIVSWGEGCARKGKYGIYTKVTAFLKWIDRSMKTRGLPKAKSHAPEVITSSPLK

With `NCc1ccc(Cl)cc1CNC(=O)[C@H](CCC(=O)O)NC(=O)C(CCc1cccc[n+]1[O-])NS(=O)(=O)Cc1ccccc1` (stereo not given in full), the Ki at Trypsin was over 0.5 µM; on Prothrombin it was 20 µM; in data set [1], over 5 µM; in data set [2] it was over 5 µM.

In the case of `O=C(CNC(=O)C(CCc1cccc[n+]1[O-])NS(=O)(=O)Cc1ccccc1)NCc1ccc(Cl)s1` (stereo not given), the Ki on Trypsin is over 0.5 µM; at Prothrombin, 190 µM; on Coagulation factor X it was 53 nM; in data set [1], over 5 µM; in data set [2], over 5 µM.

As to `NCc1ccc(Cl)cc1CNC(=O)[C@@H]1CCCN1C(=O)[C@@H](CCc1ccc(O)cc1)NCC(=O)O`, the inhibitory constant (Ki) is over 0.5 µM on Trypsin, 0.0032 µM at Prothrombin, over 5 µM in data set [1] and over 5 µM in [2]. Also, the IC200 in data set [3] was 0.47 µM; in the data set on Plasma [4], 0.73 µM; in the data set with Plasma [5], 0.15 µM.

Regarding `CCOC(=O)CC(=O)NC(CCc1cccc[n+]1[O-])C(=O)NCC(=O)NCc1cc(Cl)ccc1CN` (stereo not given), the Ki was over 0.5 µM on Trypsin; 40 µM at Prothrombin; 200 nM at Coagulation factor X; over 5 µM in data set [1]; over 5 µM in [2].

On to `NCc1ccc(Cl)cc1CNC(=O)[C@@H]1CCCN1C(=O)[C@@H](CCc1cccc[n+]1[O-])NCC(=O)OC1CCCCC1`, for which the Ki at Trypsin was over 0.5 µM; on Prothrombin it was 0.009 µM; in data set [1], over 5 µM; in data set [2], over 5 µM.

For `NCc1ccc(Cl)cc1CNC(=O)CNC(=O)C(CCc1cccc[n+]1[O-])NS(=O)(=O)CC(=O)O` (stereo not given), the Ki at Trypsin is over 0.5 µM; at Prothrombin it was 8.3 µM; in data set [1], over 5 µM; in data set [2], over 5 µM. Moreover, the figures for the IC200 (in [3]; with Plasma [5]) were 0.89 µM and 57 µM, respectively.

Consider `NCc1ccc(Cl)cc1CNC(=O)[C@H](CO)NC(=O)C(CCc1ccccn1)NS(=O)(=O)Cc1ccccc1` (stereo not given in full), for which the Ki on Trypsin is over 0.5 µM; on Prothrombin, 0.25 µM; in [1] it was over 5 µM; in [2], over 5 µM.

For the molecule `O=C(CNC(=O)C(CCc1cccc[n+]1[O-])NS(=O)(=O)Cc1ccccc1)NCc1cc(Cl)ccc1Cl` (stereo not given), the Ki was over 0.5 µM on Trypsin; 7.6 µM at Prothrombin; 2.55 nM on Coagulation factor X; over 5 µM in data set [1]; over 5 µM in [2].

Regarding `NCc1ccc(Cl)cc1CNC(=O)CNC(=O)C(CCc1cccc[n+]1[O-])NS(=O)(=O)Cc1ccc(CC(=O)O)cc1` (stereo not given), the Ki on Trypsin is over 0.5 µM; at Prothrombin, 0.93 µM; in data set [1], over 5 µM; in [2], over 5 µM. Also, the IC200 amounted to 0.49 µM in data set [3], 0.29 µM with Plasma [4] and 1.2 µM in the data set with Plasma [5].

For the molecule `N=C(N)c1ccc(CNC(=O)CNC(=O)[C@@H](CCc2cccc[n+]2[O-])NS(=O)(=O)Cc2ccccc2)cc1`, the inhibitory constant (Ki) at Trypsin worked out at 0.0063 µM; on Prothrombin it was 2.7 µM; at Coagulation factor X, 0.32 nM.

For the molecule `NCc1ccc(Cl)cc1CNC(=O)[C@@H]1CCCN1C(=O)[C@@H](CCc1cccc[n+]1[O-])NS(=O)(=O)Cc1ccccc1`, the Ki was 0.019 µM on Trypsin, 0.00056 µM at Prothrombin, over 5 µM in [1] and over 5 µM in data set [2].

With `NCc1ccc(Cl)cc1CNC(=O)[C@@H]1CCCN1C(=O)[C@@H](CCc1cccc[n+]1[O-])NS(=O)(=O)CC(=O)O`, the Ki on Trypsin is 0.061 µM; at Prothrombin, 0.0077 µM; in data set [1] it was over 5 µM; in data set [2] it was over 5 µM. Also, the figures for the IC200 (in data set [3]; in the data set on Plasma [5]) were 0.15 µM and 0.11 µM, respectively.

With `COC(=O)C(=O)NC(CCc1cccc[n+]1[O-])C(=O)NCC(=O)NCc1cc(Cl)ccc1CN` (stereo not given), the Ki at Trypsin is over 0.5 µM; on Prothrombin, 6.5 µM; on Coagulation factor X it was 4.9 nM; in [1], over 5 µM; in [2], over 5 µM.

`NCc1ccc(Cl)cc1CNC(=O)[C@H](CO)NC(=O)[C@@H](CCc1cccc[n+]1[O-])NS(=O)(=O)Cc1ccccc1`: the values for the Ki (at Trypsin; in [1]; in [2]) were over 0.5 µM, over 5 µM and over 5 µM, respectively.

As for `O=C(CNC(=O)C(CCc1cccc[n+]1[O-])NS(=O)(=O)Cc1ccccc1)NCc1cccs1` (stereo not given), the Ki at Trypsin was over 0.5 µM; at Prothrombin it was 140 µM; at Coagulation factor X it was 52 nM; in data set [1] it was over 5 µM; in data set [2] it was over 5 µM.

As for `COC(=O)Cc1ccc(CS(=O)(=O)NC(CCc2cccc[n+]2[O-])C(=O)NCC(=O)NCc2cc(Cl)ccc2CN)cc1` (stereo not given), the Ki at Trypsin was over 0.5 µM; on Prothrombin it was 1.01 µM; in data set [1], over 5 µM; in [2], over 5 µM.

Turning to `Nc1ccc(CNC(=O)CNC(=O)C(CCc2cccc[n+]2[O-])NS(=O)(=O)Cc2ccccc2)cn1` (stereo not given), the Ki is over 0.5 µM on Trypsin; 88 µM on Prothrombin; 21 nM on Coagulation factor X; over 5 µM in data set [1]; over 5 µM in [2].

For the molecule `NCc1ccc(Cl)cc1CNC(=O)[C@@H]1CCCN1C(=O)[C@@H](CCc1ccccn1)NCC(=O)O`, the Ki was over 0.5 µM on Trypsin, over 5 µM in data set [1] and over 5 µM in data set [2]. Further, the Papp in data set [6] was found to be 5 ×10⁻⁶ cm/s. Also, the IC200 in data set [3] was 0.16 µM; with Plasma [4] it was 0.35 µM; in the data set with Plasma [5], 0.03 µM.

Turning to `O=C(CNC(=O)[C@@H](CCc1cccc[n+]1[O-])NS(=O)(=O)Cc1ccccc1)NCc1cccc(Cl)c1`, the Ki at Trypsin is over 0.5 µM; at Prothrombin, 10 µM; at Coagulation factor X, 3.3 nM; in data set [1], over 5 µM; in data set [2], over 5 µM.

Take `COC(=O)C(=O)N[C@H](CCc1cccc[n+]1[O-])C(=O)N1CCC[C@H]1C(=O)NCc1cc(Cl)ccc1CN`: the Ki on Trypsin is over 0.5 µM; on Prothrombin it was 0.0177 µM; on Coagulation factor X, 0.63 nM; in data set [1] it was over 5 µM; in [2], over 5 µM. Further, the IC200 in data set [3] turned out to be 0.3 µM; in the data set with Plasma [4], 0.79 µM; in the data set on Plasma [5] it was 0.13 µM.

For `CCOC(=O)CN[C@H](CCc1cccc[n+]1[O-])C(=O)N1CCC[C@H]1C(=O)NCc1cc(Cl)ccc1CN`, the Ki was over 0.5 µM at Trypsin, 1.7 nM at Coagulation factor X, over 5 µM in data set [1] and over 5 µM in [2]. Moreover, the IC200 was 0.18 µM in data set [3] and 0.1 µM in the data set on Plasma [5].

On to `NCc1ccccc1CNC(=O)CNC(=O)C(CCc1cccc[n+]1[O-])NS(=O)(=O)Cc1ccccc1` (stereo not given), for which the Ki is over 0.5 µM on Trypsin; 40 µM at Prothrombin; 32 nM on Coagulation factor X; over 5 µM in [1]; over 5 µM in data set [2].

In the case of `COC(=O)C(=O)NC(CCc1cccc[n+]1[O-])C(=O)N1CCC[C@H]1C(=O)NCc1cc(Cl)ccc1CN` (stereo not given in full), the Ki on Trypsin was over 0.5 µM; on Prothrombin, 0.019 µM; on Coagulation factor X, 0.87 nM; in [1], over 5 µM; in [2], over 5 µM.

In the case of `NCc1ccc(Cl)cc1CNC(=O)CNC(=O)C(CCc1cccc[n+]1[O-])NCC(=O)O` (stereo not given), the Ki at Trypsin was over 0.5 µM; on Prothrombin it was 125 µM; in data set [1], over 5 µM; in data set [2], over 5 µM. Moreover, the results for the IC200 (in data set [3]; in the data set on Plasma [4]; in the data set on Plasma [5]) were 6 µM, 3.3 µM and over 100 µM, respectively.

On to `CCCS(=O)(=O)NC(CCc1cccc[n+]1[O-])C(=O)NCC(=O)NCc1cc(Cl)ccc1CN` (stereo not given), for which the Ki is over 0.5 µM at Trypsin, 2.7 µM at Prothrombin, over 5 µM in data set [1] and over 5 µM in [2]. The figures for the IC200 (in data set [3]; with Plasma [5]) were 0.45 µM and 6.5 µM, respectively.

As for `C[C@H](NC(=O)[C@@H](CCc1ccccn1)NS(=O)(=O)Cc1ccccc1)C(=O)NCc1cc(Cl)ccc1CN`, the Ki at Trypsin was over 0.5 µM; on Prothrombin, 0.024 µM; on Coagulation factor X, 0.084 nM; in data set [1], over 5 µM; in data set [2] it was over 5 µM.

In the case of `NCc1ccc(Cl)cc1CNC(=O)[C@@H]1CCCN1C(=O)[C@@H](CCc1cccc[n+]1[O-])NCC(=O)O`, the Ki at Trypsin was over 0.5 µM; at Prothrombin, 0.0173 µM; at Coagulation factor X, 0.94 nM; in data set [1], over 5 µM; in data set [2], over 5 µM. The IC200 amounted to 0.32 µM in data set [3] and 0.17 µM in the data set on Plasma [5].

For the molecule `C[C@H](NC(=O)[C@@H](CCc1cccc[n+]1[O-])NS(=O)(=O)Cc1ccccc1)C(=O)NCc1cc(Cl)ccc1CN`, the Ki at Trypsin is over 0.5 µM; on Prothrombin, 0.17 µM; in data set [1], over 5 µM; in [2] it was over 5 µM.

In the case of `O=C(CNC(=O)[C@@H](CCc1cccc[n+]1[O-])NS(=O)(=O)Cc1ccccc1)NCCc1ccncc1`, the Ki on Trypsin is over 0.5 µM; on Prothrombin, over 1000 µM; at Coagulation factor X it was 3900 nM; in data set [1] it was over 5 µM; in data set [2], over 5 µM.

Turning to `CC(C)OC(=O)CS(=O)(=O)NC(CCc1cccc[n+]1[O-])C(=O)NCC(=O)NCc1cc(Cl)ccc1CN` (stereo not given), the Ki on Trypsin is over 0.5 µM; on Prothrombin, 0.53 µM; on Coagulation factor X it was 0.76 nM; in data set [1] it was over 5 µM; in [2], over 5 µM.

In the case of `NCc1ccc(Cl)cc1CNC(=O)CNC(=O)C(CCc1cccc[n+]1[O-])NC(=O)CC(=O)O` (stereo not given), the Ki at Trypsin was over 0.5 µM; on Prothrombin, 140 µM; in [1] it was over 5 µM; in data set [2], over 5 µM.

On to `CCCCCCOC(=O)CN[C@H](CCc1cccc[n+]1[O-])C(=O)N1CCC[C@H]1C(=O)NCc1cc(Cl)ccc1CN`, for which the Ki is over 0.5 µM at Trypsin, 0.0078 µM at Prothrombin, over 5 µM in [1] and over 5 µM in data set [2].
